In the experiment the target is T1, PLK4 (Homo sapiens, UniProt O00444).
T1 sequence (O00444 1-970): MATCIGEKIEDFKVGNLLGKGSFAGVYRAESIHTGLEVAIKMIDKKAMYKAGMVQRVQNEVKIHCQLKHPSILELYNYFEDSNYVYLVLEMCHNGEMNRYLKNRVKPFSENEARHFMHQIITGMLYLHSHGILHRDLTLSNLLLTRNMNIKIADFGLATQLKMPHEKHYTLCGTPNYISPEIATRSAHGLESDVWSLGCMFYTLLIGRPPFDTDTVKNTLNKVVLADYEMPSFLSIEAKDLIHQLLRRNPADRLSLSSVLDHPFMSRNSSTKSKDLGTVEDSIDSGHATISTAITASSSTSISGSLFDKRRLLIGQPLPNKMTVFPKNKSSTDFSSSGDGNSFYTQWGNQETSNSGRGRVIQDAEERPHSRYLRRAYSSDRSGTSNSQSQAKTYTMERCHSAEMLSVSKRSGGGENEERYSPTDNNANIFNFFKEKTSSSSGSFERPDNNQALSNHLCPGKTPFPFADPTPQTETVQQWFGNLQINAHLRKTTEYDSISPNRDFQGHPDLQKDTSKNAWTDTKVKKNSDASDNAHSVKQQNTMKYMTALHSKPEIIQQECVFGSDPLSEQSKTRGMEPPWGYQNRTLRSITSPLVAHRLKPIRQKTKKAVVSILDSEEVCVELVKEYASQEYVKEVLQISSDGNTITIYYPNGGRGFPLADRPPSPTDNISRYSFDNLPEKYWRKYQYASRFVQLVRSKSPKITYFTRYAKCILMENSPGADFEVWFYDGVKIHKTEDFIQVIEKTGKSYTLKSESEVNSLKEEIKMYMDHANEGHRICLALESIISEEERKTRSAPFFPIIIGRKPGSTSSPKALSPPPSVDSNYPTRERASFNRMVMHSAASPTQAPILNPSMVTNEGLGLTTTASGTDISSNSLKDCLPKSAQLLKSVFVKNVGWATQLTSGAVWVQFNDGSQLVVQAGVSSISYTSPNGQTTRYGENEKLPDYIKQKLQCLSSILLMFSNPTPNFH
Kind of experiment: Activity (IC50) of the Table 1 compounds as PLK4 inhibitors. The class given is biochemical. Conditions: Table 1, IC50 class.

Broadly, the IC50 is the concentration needed to halve the response being measured. The low end stands for greater potency, the high end for weaker potency.

Compound `CC(=O)Nc1ccc(Sc2nc(Nc3cc(C)[nH]n3)c(C)c(N(C)C)n2)cc1` showed an IC50 of less than 100 nM. `CC(=O)Nc1ccc(Sc2nc(Nc3cc(C)[nH]n3)c(C)c(N3CCCCC3)n2)cc1`: the IC50 is less than 100 nM.

The compound `COCCN(C)c1nc(Sc2ccc(NC(C)=O)cc2)nc(Nc2cc(C)[nH]n2)c1C` registered an IC50 of less than 100 nM.

`COCCNc1nc(Sc2ccc(NC(C)=O)cc2)nc(Nc2cc(C)[nH]n2)c1C` came in with an IC50 of less than 100 nM.

`COc1c(Nc2cc(C)[nH]n2)nc(Sc2ccc(NC(=O)C3CCCC3)cc2)nc1N1CCOCC1` came in with an IC50 of less than 100 nM. For the compound `COc1c(Nc2cc(C)[nH]n2)nc(Sc2ccc(NC(C)=O)cc2)nc1C1=CCN(C)CC1`, the IC50 is less than 100 nM.

In turn, `CC(=O)Nc1ccc(Sc2nc(Nc3cc(C)[nH]n3)c3c(n2)C2(CC3)CCN(CCN(C)C)CC2)cc1` had an IC50 of less than 100 nM. `Cc1cc(Nc2nc(Sc3ccc([N+](=O)[O-])cc3)nc3c2CCC32CCN(CCN(C)C)CC2)n[nH]1` returned an IC50 of less than 100 nM. As for `Cc1cc(Nc2nc(Sc3ccc(N)cc3)nc3c2CCC32CCN(CCN(C)C)CC2)n[nH]1`, the IC50 is less than 100 nM.

Consider `COc1c(Nc2cc(C)[nH]n2)nc(Sc2ccc(NC(C)=O)cc2)nc1N1CCN(CCN2CCCC2)CC1`, for which the IC50 is less than 100 nM.

With `CCN(C)CCN1CCN(c2nc(Sc3ccc(NC(C)=O)cc3)nc(Nc3cc(C)[nH]n3)c2OC)CC1`, the 50% inhibitory concentration (IC50) is less than 100 nM. As for `COc1c(Nc2cc(C)[nH]n2)nc(Sc2ccc(NC(C)=O)cc2)nc1N1CCN(CCN)CC1`, the IC50 was less than 100 nM. In the case of `CCN(CC)CCN1CCN(c2nc(Sc3ccc(NC(C)=O)cc3)nc(Nc3cc(C)[nH]n3)c2OC)CC1`, the IC50 is less than 100 nM.

`COc1c(Nc2cc(C)[nH]n2)nc(Sc2ccc(NC(C)=O)cc2)nc1N1CCN(CCN2CCNCC2)CC1` displayed a concentration for half-maximal inhibition (IC50) of less than 100 nM. As to `COc1c(Nc2cc(C)[nH]n2)nc(Sc2ccc(NC(C)=O)cc2)nc1N1CCC(CC(=O)O)CC1`, the IC50 was less than 100 nM.

On to `COc1c(Nc2cc(C)[nH]n2)nc(Sc2ccc(NC(C)=O)cc2)nc1N1CCN(CCN2CCN(C)CC2)CC1`, for which the IC50 is less than 100 nM. Regarding `COC(=O)CC1CCN(c2nc(Sc3ccc(NC(C)=O)cc3)nc(Nc3cc(C)[nH]n3)c2OC)CC1`, the IC50 was less than 100 nM. The value for `COc1c(Nc2cc(C)[nH]n2)nc(Sc2ccc(NC(C)=O)cc2)nc1N1CCN(C(N)=O)CC1` was less than 100 nM.

The compound `COc1c(Nc2cc(C)[nH]n2)nc(Sc2ccc(NC(C)=O)cc2)nc1N1CCN(CC(=O)O)CC1` registered an IC50 of less than 100 nM. With `COc1c(Nc2cc(C)[nH]n2)nc(Sc2ccc(NC(C)=O)cc2)nc1N1CC2CCC(C1)N2CCN(C)C`, the IC50 was less than 100 nM. On to `COc1c(Nc2cc(C)[nH]n2)nc(Sc2ccc(NC(C)=O)cc2)nc1N1CCC(CC(N)=O)CC1`, for which the IC50 was less than 100 nM.

The compound `COc1c(Nc2cc(C)[nH]n2)nc(Sc2ccc(NC(C)=O)cc2)nc1N1CCN(C(=N)NO)CC1` came in with an IC50 of less than 100 nM. The figure for `COc1c(Nc2cc(C)[nH]n2)nc(Sc2ccc(NC(C)=O)cc2)nc1N1CCN(CCN(C)OC)CC1` is less than 100 nM; for `COc1c(Nc2cc(C)[nH]n2)nc(Sc2ccc(NC(C)=O)cc2)nc1N1CCN(CCNC(N)=O)CC1` it is less than 100 nM; for `COc1c(Nc2cc(C)[nH]n2)nc(Sc2ccc(NC(C)=O)cc2)nc1N1CC(C)N(CCN(C)C)C(C)C1` (stereo not drawn) it is less than 100 nM. Consider `COc1c(Nc2cc(C)[nH]n2)nc(Sc2ccc(NC(C)=O)cc2)nc1N1CCN(C(=N)N)CC1`, for which the IC50 is less than 100 nM. `COC(=O)CN1CCN(c2nc(Sc3ccc(NC(C)=O)cc3)nc(Nc3cc(C)[nH]n3)c2OC)CC1` came in with a concentration for half-maximal inhibition (IC50) of less than 100 nM.

Compound `COc1c(Nc2cc(C)[nH]n2)nc(Sc2ccc(NC(C)=O)cc2)nc1N1CCN(CCN2CCCCCC2)CC1` came in with an IC50 of less than 100 nM. On to `COc1c(Nc2cc(C)[nH]n2)nc(Sc2ccc(NC(C)=O)cc2)nc1N1CCN(CCNC(=N)N)CC1`, for which the 50% inhibitory concentration (IC50) is less than 100 nM. `COC(=O)c1ccc(Sc2nc(Nc3cc(C)[nH]n3)c(OC)c(N3CCN(CCN(C)C)CC3)n2)cc1` showed a concentration for half-maximal inhibition (IC50) of less than 100 nM. With `COc1c(Nc2cc(C)[nH]n2)nc(Sc2ccc(NC(C)=O)cc2)nc1C1CCN(CCN(C)C)CC1`, the IC50 lay in the range of 100 to 1000 nM. In the case of `COc1c(Nc2cc(C)[nH]n2)nc(Sc2ccc(NC(C)=O)cc2)nc1N1CCC(CC(=O)N(C)C)CC1`, the IC50 was less than 100 nM. In turn, `COc1c(Nc2cc(C)[nH]n2)nc(Sc2ccc(NC(C)=O)cc2)nc1N1CCN(CC(=O)N2CCCCC2)CC1` showed an IC50 of less than 100 nM. The value for `COc1c(Nc2cc(C)[nH]n2)nc(Sc2ccc(NC(C)=O)cc2)nc1N1CC2CCC(C1)N2CCN1CCN(C)CC1` was less than 100 nM; that for `COc1c(Nc2cc(C)[nH]n2)nc(Sc2ccc(NC(C)=O)cc2)nc1N1CCN(CCN(C)C)CC1` was less than 100 nM. For `COc1c(Nc2cc(C)[nH]n2)nc(Sc2ccc(C(=O)N(C)C)cc2)nc1N1CCN(CCN(C)C)CC1`, the IC50 was less than 100 nM.

As to `COc1c(Nc2cc(C)[nH]n2)nc(Sc2ccc(S(C)(=O)=O)cc2)nc1N1CCN(CCN(C)C)CC1`, the concentration for half-maximal inhibition (IC50) was less than 100 nM. Regarding `CNC(=O)c1ccc(Sc2nc(Nc3cc(C)[nH]n3)c(OC)c(N3CCN(CCN(C)C)CC3)n2)cc1`, the IC50 is less than 100 nM. The figure for `COc1c(Nc2cc(C)[nH]n2)nc(Sc2ccc(NC(C)=O)cc2)nc1N1CCN(CCN(C)Cc2ccccc2)CC1` is less than 100 nM; for `COc1c(Nc2cc(C)[nH]n2)nc(Sc2ccc(NC(C)=O)cc2)nc1N1CCN(CCN(C)c2ccccc2)CC1` it is less than 100 nM. The value for `COc1c(Nc2cc(C)[nH]n2)nc(Sc2ccc(NC(C)=O)cc2)nc1N1CCN(CCN2C3CCCC2CC3)CC1` was less than 100 nM. With `COc1c(Nc2cc(C)[nH]n2)nc(Sc2ccc([S+](C)[O-])cc2)nc1N1CCN(CCN(C)C)CC1` (stereo not drawn), the IC50 is less than 100 nM. The figure for `COc1c(Nc2cc(C)[nH]n2)nc(Sc2ccc(NC(C)=O)cc2)nc1N1CC2CCC(C1)N2CCN1CCCCCCC1` is less than 100 nM; for `COc1c(Nc2cc(C)[nH]n2)nc(Sc2ccc(NC(C)=O)cc2)nc1N1CCN(CCS(C)(=O)=O)CC1` it is less than 100 nM; for `COc1c(Nc2cc(C)[nH]n2)nc(Sc2ccc(NC(C)=O)cc2)nc1N1CCN(CCN2C3CCCC2CCC3)CC1` it is less than 100 nM. The compound `COc1c(Nc2ncc(C)s2)nc(Sc2ccc(NC(C)=O)cc2)nc1N1CCN(CCN(C)C)CC1` gave a half-inhibitory concentration (IC50) of less than 100 nM.

In turn, `CC(=O)Nc1ccc(Sc2nc(Nc3cc(C)[nH]n3)c(C)c(C3CCN(CCN(C)C)CC3)n2)cc1` came in with an IC50 of less than 100 nM. The compound `COc1c(Nc2cc(C)[nH]n2)nc(Sc2ccc(S(C)(=O)=O)cc2)nc1N1CCN(CCN2CCN(C)CC2)CC1` gave an IC50 of less than 100 nM. The value for `COc1c(Nc2cc(C)[nH]n2)nc(Sc2ccc(NS(C)(=O)=O)cc2)nc1N1CCN(CCN(C)C)CC1` was less than 100 nM; that for `CCS(=O)(=O)c1ccc(Sc2nc(Nc3cc(C)[nH]n3)c(OC)c(N3CCN(CCN(C)C)CC3)n2)cc1` was less than 100 nM; that for `COc1c(Nc2cc(C)[nH]n2)nc(Sc2ccc(S(=O)(=O)C(F)(F)F)cc2)nc1N1CCN(CCN(C)C)CC1` was less than 100 nM.

Compound `COc1c(Nc2cc(C)[nH]n2)nc(Sc2ccc(S(=O)(=O)N(C)C)cc2)nc1N1CCN(CCN(C)C)CC1` yielded an IC50 of less than 100 nM.

Take `COc1c(Nc2cc(C)[nH]n2)nc(Sc2ccc(S(=O)(=O)Cc3ccccc3)cc2)nc1N1CCN(CCN(C)C)CC1`: the half-inhibitory concentration (IC50) is less than 100 nM. Take `COc1c(Nc2cc(C)[nH]n2)nc(Sc2ccc(S(=O)(=O)COCc3ccccc3)cc2)nc1N1CCN(CCN(C)C)CC1`: the IC50 was less than 100 nM.
